Measurements taken from BindingDB's records for doi:10.3109/14756366.2011.555944 (Aristotle University of Thessaloniki, 2011).

Target: T1, Seed linoleate 13S-lipoxygenase-1 (Glycine max, UniProt P08170)
T1 sequence (P08170 whole entry): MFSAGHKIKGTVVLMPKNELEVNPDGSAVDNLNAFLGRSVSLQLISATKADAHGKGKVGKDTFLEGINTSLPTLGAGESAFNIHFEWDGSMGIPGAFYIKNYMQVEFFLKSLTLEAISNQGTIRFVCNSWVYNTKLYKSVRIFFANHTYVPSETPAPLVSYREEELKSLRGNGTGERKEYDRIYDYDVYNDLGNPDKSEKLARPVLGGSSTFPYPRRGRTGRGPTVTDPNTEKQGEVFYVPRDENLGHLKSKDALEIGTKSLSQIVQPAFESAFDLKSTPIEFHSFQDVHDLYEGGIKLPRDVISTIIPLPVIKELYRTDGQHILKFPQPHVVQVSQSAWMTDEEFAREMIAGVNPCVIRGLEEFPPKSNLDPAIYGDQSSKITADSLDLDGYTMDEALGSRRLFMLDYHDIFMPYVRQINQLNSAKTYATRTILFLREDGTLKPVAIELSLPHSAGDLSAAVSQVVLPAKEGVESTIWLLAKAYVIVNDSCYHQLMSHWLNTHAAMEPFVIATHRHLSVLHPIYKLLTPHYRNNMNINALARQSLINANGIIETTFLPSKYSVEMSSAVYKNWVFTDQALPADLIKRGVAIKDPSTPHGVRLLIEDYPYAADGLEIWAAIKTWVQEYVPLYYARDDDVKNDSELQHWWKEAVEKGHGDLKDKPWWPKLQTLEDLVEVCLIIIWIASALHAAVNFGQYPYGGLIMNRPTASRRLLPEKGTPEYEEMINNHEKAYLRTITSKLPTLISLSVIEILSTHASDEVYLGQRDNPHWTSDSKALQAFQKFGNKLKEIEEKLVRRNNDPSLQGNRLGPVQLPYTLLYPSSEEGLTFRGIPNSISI
Assay: In Vitro LOX Inhibition Assay
Details: 25 °C

SMILES	IC50
O=c1ccc2ccc3c(c2o1)CC=CCO3 [8,11-Dihydro-2H-oxepino[2,3-h]chromen-2-one (7a)]	310 µM
Cc1cc(=O)oc2c3c(ccc12)OCC=CC3 [4-Methyl-8,11-dihydro-2H-oxepino[2,3-h]chromen-2-one (7b)]	180 µM
